Assay [1] concerns estrogen receptor preparations from rat uteri. The assay is described as follows: Competitive 3H-estradiol binding, rat uterus cytosol. The settings on record: for RBA Rat Uterus: Table 2, 3H-estradiol as ligand.
Assay [2] relates to estrogen receptor preparations from rat prostates. The assay is described as follows: Competitive 3H-estradiol binding, rat prostate cytosol. The settings on record: for RBA Rat Prostate: Table 2, 3H-estradiol as ligand; for binding affinity to estrogen receptor of rat prostates compared with rat uteri: qualitative comparison prostate ER versus uterus ER.
Another assay has as its system adult female rats. The assay is described as follows: Dissociation of action ovary/uterus and pituitary gland: ovulation and uterus weight. The assay is classed as in vivo, rat. As to the method: The studies with respect to the action on uterus growth and ovulation (indirect effect by influencing the secretion of pituitary gland hormones) are performed on adult female rats (body weight of 220-250 g). The substances are subcutaneously administered four times on four consecutive days. The first administration is carried out in the metestrus. One day after the last administration, the autopsy is carried out. The number of ovocytes in the tube (effect on the ovulation) as well as the uterus weight are determined.

Assay [3] deals with hERβ. The assay is described as follows: Relative binding affinity to hERβ (Kuiper et al.). The following applies: quotient of RBA hERβ / hERα. On the set-up: species or system human. The text has this:
In this case, it is assumed that ERβ predominates in the rat prostates over ERα, and ERα predominates in rat uteri over ERβ.

Assay [4] deals with hERβ. The settings on record: cited from earlier work.
The subject of assay [5] is hypophysectomized juvenile rats. The assay is described as follows: Ovary study, ovary weight in hypophysectomized juvenile rats. The assay is classed as in vivo, rat. The settings on record: 0.5 mg/animal/day s.c. over 4 days, compared with estradiol 0.1 mg/animal/day. As to the method: (§1) The substances were tested in vivo on hypophysectomized juvenile rats. In a modification of this operative method, a GnRH antagonist is administered to the animals. It is examined whether the substance stimulates follicular proliferation (maturation) in the ovary. The ovary weight is the measurement parameter.
(§2) In each case, five animals (body weight 40-50 g) are assigned randomly to the treatment groups. The animals are fed as much as they want with a standard diet (altromin) in Makrolon cages in air-conditioned rooms with a lighting program (10 hours of darkness, 14 hours of light) and are given acidified tap water to drink.
(§3) In both cases, the animals are sacrificed 24 hours after the last administration, and the ovary weight is determined.

Assay [6] concerns GnRH antagonist-treated animals. The assay is described as follows: Ovary study, ovary weight in GnRH antagonist (Cetrorelix)-treated juvenile rats. Format: in vivo, rat. As to the method:
as §1, §2, §3

[7] abbreviates: Table 1, 3H-estradiol as ligand, estradiol = 100.

Like-named read-outs stand apart in the source and are kept apart here.

On to `C[C@]12CC[C@]3(C=C(F)F)c4ccc(O)cc4CC[C@H]3[C@@H]1C[C@@H](O)C2` [Compound 4, 9α-(2′,2′-Difluorovinyl)-estra-1,3,5(10)-triene-3,16α-diol], for which the “RBA Rat Uterus” value in assay [1] is on record as 0.2. In addition, in assay [2], the “RBA Rat Prostate” value stood at 4 and the “binding affinity to estrogen receptor of rat prostates compared with rat uteri” value (from here on “binding affinity … compared with rat uteri”) is “higher binding affinity to the estrogen receptor of rat prostates”.
For `C[C@]12CC[C@@H]3c4ccc(O)cc4CC[C@H]3[C@@H]1CC[C@@H]2O` [Estradiol, reference compound], in the assay on adult female rats (s.c. four times on four consecutive days), the “ED50 of ovulation inhibition and increase in uterus weight” value is reported as 0.004 mg/kg of body weight.
In the assay with hERβ [3], `C[C@]12CCC(O)CC1=CC[C@@H]1[C@@H]2CC[C@]2(C)C(O)CC[C@@H]12` (some centres unmarked) [5-Androstene-diol, reference compound] yielded an ERβ/ERα of 3. In addition, in assay [1] (setting [7]), the “Rat uterus ER(RBA)” value was determined as 0.1. Besides, the “Rat prost. ER(RBA)” value in assay [2] (setting [7]) came to 5. The “prost. ER/uterus ER” value in assay [2] (ratio of RBA rat prostate ER / rat uterus ER) turned out to be 50. Besides, the “hERβ RBA*” value in the assay on hERβ [4] is listed as 17.
Consider `C=C[C@]12CC[C@]3(C)C[C@H](O)C[C@H]3[C@@H]1CCc1cc(O)ccc12` [Compound 1, 9α-Vinylestra-1,3,5(10)-triene-3,16α-diol], for which the “RBA Rat Uterus” value in assay [1] is listed as 1.2. Moreover, in assay [2], the “RBA Rat Prostate” value was determined as 100 and the “binding affinity … compared with rat uteri” value is “higher binding affinity to the estrogen receptor of rat prostates”. In addition, in the assay with adult female rats (s.c. on four days, up to a dose of 0.4 mg/kg of body weight), the “effect on ovulation and uterus weight” value is listed as “does not exert any effect”. Also, in assay [5], the “increase in ovary weight” value is given as “comparable increase in ovary weight”.
For `C=C[C@]12CC[C@]3(C)[C@@H](F)[C@H](O)C[C@H]3[C@@H]1CCc1cc(O)ccc12` [Compound 2, 17β-Fluoro-9α-vinyl-estra-1,3,5(10)-triene-3,16α-diol], the “RBA Rat Uterus” value in assay [1] was determined as 2. Besides, in assay [2], the “RBA Rat Prostate” value amounted to 200 and the “binding affinity … compared with rat uteri” value was “higher binding affinity to the estrogen receptor of rat prostates”. Also, the “action on ovary weight (FIG. 1)” value in assay [6] (GnRH antagonist-treated animals, 0.1 and 0.3 mg/animal/day, compared with estradiol 1 mg/animal/day) is on record as “same action as the dose of 1 mg/animal/day of estradiol”. For the same molecule, in assay [6] (combination with Cetrorelix, 0.01, 0.03 mg/animal/day), the “action on ovary weight, low dosages (FIG. 2)” value is “show an ovary action and can eliminate the antagonistic effect of Cetrorelix”.
In the case of “9α-(2′,2′-Difluorovinyl)-18a-homo-estra-1,3,5(10)-triene-3,16α-diol [Compound 5]”, the “RBA Rat Uterus” value in assay [1] was 0.2. In addition, in assay [2], the “RBA Rat Prostate” value is on record as 6 and the “binding affinity … compared with rat uteri” value was “higher binding affinity to the estrogen receptor of rat prostates”.
Take `C[C@]12CC[C@@H]3c4ccc(O)cc4CC[C@H]3[C@@H]1C[C@@H](O)[C@@H]2O` [Estriol]: in the assay with hERβ [4] (relative binding affinity, estradiol = 100, cited from Kuiper et al.), the “hERβ RBA*” value was 21.

Source of the values: patent publication US7414043B2, “9-α-substituted estratrienes as selectively active estrogens” (priority 2002, dated 2008).
